In PMC8589421, “Impact of Type II LRRK2 inhibitors on signaling and mitophagy” (Biochemical Journal, 2021):

Legend:
wild-type Flag-LRRK2 = target: T1, wild-type Flag-LRRK2 (Homo sapiens, UniProt Q5S007); experiment: IC50 LRRK2 Nictide assay, wild type; assay type: biochemical
T1 construct: Human recombinant full length wild-type Flag-LRRK2 (#A15198); Flag (N); purchased ThermoFisher Scientific A15198
Experimental: (#A15201) purchased from ThermoFisher Scientific. […] After incubation for 30 min at room temperature, reactions were terminated by harvesting the whole reaction volume onto P81 phosphocellulose filter plate and immersion in 50 mM phosphoric acid. […] IC50 values were calculated with GraphPad Prism using non-linear regression analysis.

Flag-LRRK2[G2019S] = target: T2, Flag-LRRK2[G2019S] (Homo sapiens, UniProt Q5S007, G2019S); experiment: IC50 LRRK2 Nictide assay, G2019S; assay type: biochemical; conditions: read-out: IC50 LRRK2 G2019S (100 µM ATP), Nictide peptide substrate, value ± SD
T2 construct: towards full length wild type and G2019S pathogenic LRRK2 mutant in a biochemical assay; Flag (N); purchased ThermoFisher Scientific A15201
T2 sequence (Q5S007 whole entry G2019S): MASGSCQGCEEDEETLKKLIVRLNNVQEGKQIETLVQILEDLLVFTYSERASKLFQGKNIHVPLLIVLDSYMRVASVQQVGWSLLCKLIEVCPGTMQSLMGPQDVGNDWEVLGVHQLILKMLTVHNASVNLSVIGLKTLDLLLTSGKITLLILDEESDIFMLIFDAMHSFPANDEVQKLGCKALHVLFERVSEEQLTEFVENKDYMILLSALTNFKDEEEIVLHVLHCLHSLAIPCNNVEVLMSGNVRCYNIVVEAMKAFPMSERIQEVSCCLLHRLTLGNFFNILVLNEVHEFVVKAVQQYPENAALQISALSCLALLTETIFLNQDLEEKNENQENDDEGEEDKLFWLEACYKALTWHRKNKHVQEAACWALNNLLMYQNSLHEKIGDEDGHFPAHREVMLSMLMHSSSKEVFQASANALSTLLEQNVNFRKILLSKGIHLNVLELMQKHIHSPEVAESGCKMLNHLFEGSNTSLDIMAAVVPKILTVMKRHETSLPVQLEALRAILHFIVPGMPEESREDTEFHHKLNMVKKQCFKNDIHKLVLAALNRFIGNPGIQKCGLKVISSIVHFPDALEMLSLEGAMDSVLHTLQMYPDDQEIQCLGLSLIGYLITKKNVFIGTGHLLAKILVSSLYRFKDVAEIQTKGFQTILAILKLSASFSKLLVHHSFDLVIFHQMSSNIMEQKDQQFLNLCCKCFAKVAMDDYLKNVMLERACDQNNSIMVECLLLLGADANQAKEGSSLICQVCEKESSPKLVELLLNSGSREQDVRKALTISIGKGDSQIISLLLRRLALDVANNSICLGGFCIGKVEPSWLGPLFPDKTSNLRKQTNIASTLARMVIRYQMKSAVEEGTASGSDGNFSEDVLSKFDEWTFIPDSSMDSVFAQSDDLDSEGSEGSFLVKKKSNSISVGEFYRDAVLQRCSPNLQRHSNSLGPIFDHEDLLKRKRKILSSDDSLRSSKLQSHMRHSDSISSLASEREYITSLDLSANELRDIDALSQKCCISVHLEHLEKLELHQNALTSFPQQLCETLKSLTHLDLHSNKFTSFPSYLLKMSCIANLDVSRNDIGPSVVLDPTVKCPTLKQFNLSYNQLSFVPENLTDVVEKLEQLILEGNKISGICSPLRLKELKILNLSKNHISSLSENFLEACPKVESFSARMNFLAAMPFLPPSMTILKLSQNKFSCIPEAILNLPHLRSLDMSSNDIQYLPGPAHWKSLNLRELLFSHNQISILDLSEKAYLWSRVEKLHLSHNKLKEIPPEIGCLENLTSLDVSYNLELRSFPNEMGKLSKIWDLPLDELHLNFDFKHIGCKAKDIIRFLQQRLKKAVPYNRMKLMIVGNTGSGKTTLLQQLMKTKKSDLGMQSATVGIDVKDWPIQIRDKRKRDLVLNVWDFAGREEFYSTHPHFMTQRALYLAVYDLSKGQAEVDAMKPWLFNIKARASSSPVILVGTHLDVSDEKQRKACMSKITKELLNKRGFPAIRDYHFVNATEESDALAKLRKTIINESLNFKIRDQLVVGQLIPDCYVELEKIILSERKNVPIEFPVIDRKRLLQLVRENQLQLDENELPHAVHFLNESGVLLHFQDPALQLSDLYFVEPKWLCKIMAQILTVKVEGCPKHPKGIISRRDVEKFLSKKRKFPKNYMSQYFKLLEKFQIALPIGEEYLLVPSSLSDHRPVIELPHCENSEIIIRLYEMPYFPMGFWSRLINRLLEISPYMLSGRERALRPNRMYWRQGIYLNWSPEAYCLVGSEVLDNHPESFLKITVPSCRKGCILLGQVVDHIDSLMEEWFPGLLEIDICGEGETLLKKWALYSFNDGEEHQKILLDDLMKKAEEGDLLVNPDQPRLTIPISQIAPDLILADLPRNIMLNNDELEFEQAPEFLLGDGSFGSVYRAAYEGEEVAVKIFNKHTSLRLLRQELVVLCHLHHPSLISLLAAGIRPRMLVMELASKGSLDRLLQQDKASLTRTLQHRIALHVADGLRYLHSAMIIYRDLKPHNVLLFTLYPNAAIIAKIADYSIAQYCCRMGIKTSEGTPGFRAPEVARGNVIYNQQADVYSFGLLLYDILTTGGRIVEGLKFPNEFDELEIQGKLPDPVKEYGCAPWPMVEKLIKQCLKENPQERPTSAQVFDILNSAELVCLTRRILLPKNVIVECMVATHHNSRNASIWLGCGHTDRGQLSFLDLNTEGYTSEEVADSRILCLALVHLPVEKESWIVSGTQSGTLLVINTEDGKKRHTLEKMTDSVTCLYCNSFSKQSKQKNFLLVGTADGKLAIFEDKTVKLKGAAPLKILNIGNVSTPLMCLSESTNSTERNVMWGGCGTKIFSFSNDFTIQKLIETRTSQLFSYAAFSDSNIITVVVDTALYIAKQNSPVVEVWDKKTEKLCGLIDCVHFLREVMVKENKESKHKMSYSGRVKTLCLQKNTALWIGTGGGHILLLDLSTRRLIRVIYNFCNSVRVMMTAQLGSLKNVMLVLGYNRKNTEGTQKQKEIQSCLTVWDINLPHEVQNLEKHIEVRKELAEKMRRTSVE

[1] = test system: Dundee panel of 140 protein kinases; experiment: Kinase profiling; assay type: biochemical
Description: […] Results for each kinase are presented as the mean kinase activity ±S.D. for an assay undertaken in duplicate relative to a control kinase assay in which the inhibitor was omitted. Abbreviations and assay conditions used for each kinase are available (http://www.kinase-screen.mrc.ac.uk/services/premier-screen).

LRRK2 14-3-3 binding = test system: T3, LRRK2 14-3-3 binding; experiment: Analysis of 14-3-3 binding in HEK293 cells overexpressing wild-type LRRK2; assay type: cell-based, human; conditions: 5 μM GZD-824 for 4 h, 1 μM GSK3357679A
T3 construct: host or cells: HEK293
Experimental: This was undertaken as described previously. Briefly, wild-type FLAG-LRRK2 was transiently expressed in HEK293 cells with HA-Rab29. Twenty-four hours post-transfection cells were lysed with lysis buffer and snap frozen. LRRK2 was immunoprecipitated from 4 mg of lysate using 20 μl anti-FLAG-M2 agarose beads (Sigma, #A2220) for 2 h in rotation at +4°C. Immunoprecipitates were washed once with lysis buffer supplemented with 0.5% (by vol) Nonidet P-40 (instead of Triton X-100) and 0.5 M NaCl followed by two washes. Samples were eluted in 2× LDS sample buffer (20 µl per 10 µl of resin) and heated at 70°C for 10 min. After centrifugation through 0.22 µm Spin X filter, the eluted protein was subjected to immunoblotting with the indicated antibodies. An amount of 10 μl of the final reaction mixture was needed for the detection of binding of endogenous 14-3-3 and 1 µl for detection of LRRK2.

[2] = test system: LRRK2 Ser935 phosphorylation; experiment: Ser935 phosphorylation in HEK293 cells overexpressing wild-type LRRK2; assay type: cell-based, human; conditions: 1 μM
Experimental: Cell extracts were mixed with a quarter of a volume of NuPage LDS Sample buffer 4× Invitrogen and heated at 95°C for 5 min. […] At the end of electrophoresis, proteins were electrophoretically transferred onto the nitrocellulose membrane (GE Healthcare, Amersham Protran Supported 0.45 µm NC) at 100 V for 90 min on ice in the transfer buffer (48 mM Tris–HCl and 39 mM glycine supplemented with 20% methanol). Transferred membrane was blocked with 5% (w/v) skim milk powder dissolved in TBS-T [20 mM Tris–HCl, pH 7.5, 150 mM NaCl and 0.1% (v/v) Tween 20] at room temperature for 1 h. The membrane was typically cropped into three pieces, namely the ‘top piece’ (from the top of the membrane to 75 kDa), the ‘middle piece’ (between 75 and 30 kDa) and the ‘bottom piece’ (from 30 kDa to the bottom of the membrane). All primary antibodies were used at 1 μg/ml final concentration and incubated in TBS-T containing 5% (by mass) bovine serum albumin with exception of α-tubulin and GAPDH antibodies that were diluted 1 : 5000 and 1 : 2000, respectively. The top piece was incubated with the indicated rabbit anti-LRRK2 phosphorylation site antibody multiplexed with mouse anti-LRRK2 C-terminus total antibody. […] Protein bands were acquired via near infrared fluorescent detection using the Odyssey CLx imaging system and quantified using the Image Studio software. […]

[3] = test system: Rab29 mediated relocalization of LRRK2 to the Golgi apparatus; experiment: Rab29 mediated recruitment of LRRK2 to the Golgi, immunofluorescence in HeLa cells; assay type: cell-based, human; conditions: 5 μM GZD-824 or 1 μM GSK3357679A for 4 h
Experimental: HeLa cells were seeded on coverslips and transfected with the plasmid reported in each image 24 h before fixation. Following the treatments with the inhibitors described in figure legends, cells were washed twice in DPBS and fixed with 3.7% Paraformaldehyde pH 7.3 (Agar scientific, #R1026), 200 mM HEPES, for 20 min. Cells were then washed twice with DMEM, 20 mM HEPES, and then incubated for 10 min with DMEM, 10 mM HEPES. After two washes in DPBS, fixed cells were permeabilized with 0.2% (by vol) NP-40 in DPBS for 10 min. Cells were blocked using 1% (by mass) BSA in DPBS, then incubated for 1 h with primary antibodies diluted in 1% (by mass) BSA in DPBS, washed three times in 0.2% (by mass) BSA in DPBS, and incubated for 1 h with secondary antibodies. The coverslips were washed three times with 0.2% (by mass) BSA in PBS. Coverslips were washed once more in double distilled water and mounted on slides (VWR, #631-0909) using ProLong™ Diamond Antifade Mountant (ThermoFisher, #P36961). For localization of the Golgi compartment, Golgin-97 was stained with rabbit anti-GM97 (CST, #D8P2K) and visualized with goat anti-rabbit conjugated to Alexa Fluor 405 (Life Technologies, #P10994). HA-Rab29 was stained with mouse anti-HA (Abcam, clone HA.C5 #ab18181) and visualized with goat anti-mouse conjugated to Alexa Fluor 594 (Life Technologies, #A-11032). […]

[4] = test system: basal mitophagy, wild type MEFs; experiment: mito-QC basal mitophagy in wild-type primary MEFs; assay type: cell-based, mouse; conditions: 24 h, 30–300 nM GZD-824, GSK3357679A 100 nM positive control
Experimental: (§1) To assess mitophagy, wild type, G2019S knock in, and LRRK2 knock out primary mouse embryonic fibroblasts (MEFs) were derived, from time-mated pregnant females at E12.5 as previously described. Briefly, cells were plated on glass coverslips and incubated with DMEM (Gibco, 11960-044) supplemented with 10% FBS, 2 mM L-Glutamine (Gibco, 2503-081), 1% non-essential amino acids (Gibco, 11140-035), 1% Antibiotics (Penicillin/Streptomycin 100 U/ml penicillin and 100 µg/ml streptomycin; Gibco), and 150 µM β-Mercaptoethanol (Gibco, 21985-023) at 37°C under a humidified 5% CO2 atmosphere. […] GSK3357679A 100 nM (Ding et al., in prep) was used as a positive control. At the end of the treatment, MEFs were briefly washed twice in DPBS (Gibco, 14190-094), and fixed in 3.7% Paraformaldehyde pH 7.00 (Sigma, P6148), 200 mM HEPES, for 20 min. Cells were then washed two times with DMEM, 10 mM HEPES, and then incubated for 10 min with DMEM, 10 mM HEPES. […] Images were acquired using a Nikon Eclipse Ti-S fluorescence microscope with a 63× objective. Images were analyzed using the mito-QC counter as previously described. Experiments were performed in 3–4 independent experiments and data was analyzed with a one-way ANOVA followed by a Dunnett's multiple comparison test using the GraphPad Prism software (version 8.4.3 (686)).

[5] = test system: basal mitophagy, LRRK2[G2019S] MEFs; experiment: mito-QC basal mitophagy in LRRK2[G2019S] knock-in primary MEFs; assay type: cell-based, mouse; conditions: 24 h, 30–300 nM GZD-824, GSK3357679A 100 nM positive control
Experimental: as §1

[6] = test system: basal mitophagy, LRRK2 knock-out MEFs; experiment: mito-QC basal mitophagy in LRRK2 knock-out primary MEFs; assay type: cell-based, mouse; conditions: 24 h
Experimental: as §1

T1 sequence (Q5S007 whole entry): as the sequence (Q5S007 whole entry G2019S) above, with S2019G counted along it

GSK3357679A
IC50 LRRK2 WT (100 µM ATP) (wild-type Flag-LRRK2; Nictide peptide substrate, value ± SD): sub-nanomolar potency
IC50 (wild-type Flag-LRRK2; read-out: IC50 LRRK2 WT (100 µM ATP), Nictide peptide substrate, value ± SD): 0.3 nM
IC50 (Flag-LRRK2[G2019S]): 0.34 nM
kinase selectivity (panel of 140 protein kinases) [1]: highly selective
impact on 14-3-3 binding to LRRK2 (LRRK2 14-3-3 binding): ablated
effect on Ser935 phosphorylation [2]: ablated
impact on Rab29 mediated recruitment of LRRK2 to the Golgi [3]: no impact
stimulation of basal mitophagy [4]: ~2 fold
stimulation of basal mitophagy [5]: ~2 fold
impact on basal mitophagy in LRRK2 knock-out cells [6]: neither GZD-824 or GSK3357679A impacted basal mitophagy
